Assay results: patent US10822315B2, “5-benzylidene-4-oxazolidinones” (NORTH CAROLINA STATE UNIVERSITY, priority 2016, dated 2020)

Tested on: MRSA Strain 43300
Experiment: Biofilm inhibition assay (crystal violet)
Assay type: cell-based
Conditions: Staphylococcus aureus, read-out: % Biofilm Inhibition (5/40 μM)
Description: General Information. Methicillin-resistant Staphylococcus aureus (MRSA) strains were obtained from the Laboratory of Professor Christian Melander (NCSU) ATCC (33591, BAA 44, BAA 1685, BAA 1770, BAA 43 300) and colonies were grown on solid media as instructed. Mueller-Hinton broth (MHB, 211443-BD), tryptic soy broth (TSB, Remel: R455052) and D-glucose (CAS: 492-62-6) were purchased from Fisher Scientific. Tryptic soy agar (TSA, cat. #22091) and Linezolid (cat. # P70014) were purchased from Sigma-Aldrich. Bacteria for biofilm inhibition and dispersion assays were cultured overnight in TSBG (tryptic soy broth with 0.5% glucose supplement). All assays were run in duplicate and repeated at least two separate times for MIC assays and at least four separate times for biofilm inhibition and dispersion assays. All compounds were dissolved molecular biology grade DMSO as 100 mM stock solutions and further diluted to 10 and 1 mM stock solutions as needed. Optical densities were measured using a Thermo Scientific Genesys 20 spectrophotometer. Data for biofilm inhibition and dispersion assays was collected using a BioTek ELx808 Microplate Reader. All graphs were generated and analyzed using GraphPad Prism 7.
Biofilm Inhibition Assay. Studies were performed using the standard method described in S. A. Rogers and C. Melander, Angew Chem Int Ed, 2008, 47, 5229-5231. Briefly, biofilm inhibition assays were performed by taking an overnight culture of bacterial strain and subculturing it at an OD600 of 0.01 into the necessary growth liquid medium (LB for A. baumannii, LBNS for P. aeruginosa, Stainer-Scholte medium that was supplemented with 10 μL/mL of 100× nutrient complex for B. bronchiseptica and TSB w/0.3% glucose for S. aureus) for the strain. The compound being tested was then added at a predetermined concentration and then aliquoted (100 μL) into the wells of a 96-well PVC microtiter plate (wells not used for samples are filled with 100 μL of de-ionized water). Plates were then wrapped in GLAD Press n' Seal and incubated under stationary conditions at 37° C. After 24 hours, the media was discarded from the wells and the plates were washed thoroughly with tap water. Plates were then stained with 100 μL of 0.1% solution of crystal violet (CV) and then incubated at an ambient temperature for 30 minutes. Sample plates were then washed with tap water again and the remaining stain was solubilized with 200 μL of 95% ethanol. Biofilm inhibition was quantitated by measuring the OD540 for each well by transferring 125 μL of the solubilized CV stain into a polystyrene microtiter dish for analysis. Biofilm inhibition was quantified by measuring the OD540 of each well and calculated as a percentage of the control (no compound); a negative control lane wherein no biofilm was formed served as a background and was subtracted out.
Percent inhibition was then plotted against concentration in Prism 7. Each of the four experiments were plotted separately and analyzed by a normalized nonlinear regression. The IC50 values reported represent an arithmetic mean of the four IC50 values. Biofilm data represent four separate experiments, with each experiment performed in duplicate (average of 8 data points for each concentration tested, unless otherwise noted)

SMILES | inhibition at 5 µM [%] | inhibition at 40 µM [%]
CCCCC(Cl)(Cl)C1NC(=O)/C(=C/c2ccc(C(F)(F)F)cc2)O1 (stereo not shown) [Compound 1, (Z)-2-(1,1-dichloropentyl)-5-(4-(trifluoromethyl)benzylidene)oxazolidin-4-one] | 59 | 54
O=C1NC(C(Cl)(Cl)Cc2ccccc2)O/C1=C\c1ccc(C(F)(F)F)cc1 (stereo not shown) [Compound 2, (Z)-2-(1,1-dichloro-2-phenylethyl)-5-(4-(trifluoromethyl)benzylidene)oxazolidin-4-one] | 41 | 63
